Counter-ions that a name gives are not always drawn. Like-named read-outs stand apart in the source and are kept apart here.
Assays:
[1] = molecular target: GST-Syk Full Protein (human) (Homo sapiens, UniProt P43405); test: Syk kinase inhibition test (HTRF method); format: biochemical
In short: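 HTRF read-out: after EDTA termination and 1 h with XL665-streptavidin and Eu-anti-phosphotyrosine, the 665/620 nm ratio was measured. The reaction ran 30 min at 20–25 °C with final 6.4 nM human GST-Syk, 250 nM biotinylated peptide, 100 μM ATP, pH 7.0 HEPES buffer, 2% DMSO.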

[2] = system: cultured human mast cells; test: Degranulation inhibition test using cultured human mast cells (IgE cross-linking, β-Hexosaminidase release); format: cell-based; details: Mast cell, cultured human mast cells, read-out: human degranulation ave. IC50
In short: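 Degranulation was triggered by anti-hIgE (10 μg/mL final, 30 min, 37 °C) after a 10-min compound pretreatment (DMSO 0.1%) of cord-blood CD34+-derived mast cells primed 5 days with IL-4 and IgE. β-Hexosaminidase in supernatant was measured with p-nitrophenyl-GlcNAc substrate (A405), expressed against water-lysed total; IC50 (M).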

[3] = HTRF, 100 μM ATP, 30 min room temperature, average, read-out: sykHTRF ave IC50
[4] = anti-hIgE stimulation, β-Hexosaminidase index, average
[5] = Tables 1-x, compounds A, read-out: sykHTRF ave IC50
[6] = Tables 2-x, thiophene compounds B, read-out: sykHTRK ave IC50
[7] = Tables 2-x, thiophene compounds B

Row | Compound | IC50 [1, 3] [µM] | IC50 [2, 4] [µM] | IC50 [1, 5] [µM] | IC50 ([2]; Tables 1-x, compounds A) [µM] | further results
1 | CC(=O)N1CCN(Cc2ncc(-c3cccc(Nc4cc(C)ccn4)n3)s2)CC1 [Compound A-190] | 0.1 to 1 | 0.1 to 1 | – | – | –
2 | COCCNC(=O)C1CCN(c2ncc(-c3cccc(Nc4cc(C)ccn4)n3)s2)CC1 [Compound A-435] | – | – | 0.1 to 1 | > 1 | –
3 | CN(c1ncc(-c2cccc(Nc3cc(Cl)ccn3)n2)s1)C1CCN(C(=O)CO)CC1 [Compound A-537, 1-[4-(N-{5-[6-(4-chloropyridin-2-ylamino)pyridin-2-yl]thiazol-2-yl}-N-methylamino)piperidin-1-yl]-2-hydroxyethanone] | – | – | < 0.1 | 0.1 to 1 | –
4 | CC(=O)N[C@@H](CCC(=O)O)c1ncc(-c2cccc(Nc3cc(C)ccn3)n2)s1 [Compound A-103] | 0.1 to 1 | > 1 | – | – | –
5 | Cc1ccnc(Nc2cccc(-c3cnc(C4CCN(C(=O)CO)CC4)s3)n2)c1 [Compound A-187, 2-hydroxy-1-(4-{5-[6-(4-methylpyridin-2-ylamino)pyridin-2-yl]thiazol-2-yl}piperidin-1-yl)ethanone] | < 0.1 | 0.1 to 1 | – | – | –
6 | COC(=O)CCCc1ncc(-c2cccc(Nc3cc(C)ccn3)n2)s1 [Compound A-130] | 0.1 to 1 | > 1 | – | – | –
7 | Cc1ccnc(Nc2cccc(-c3cnc(N4CCC(C(=O)NCCO)CC4)s3)n2)c1 [Compound A-5, N-(2-hydroxyethyl)-1-{5-[6-(4-methylpyridin-2-ylamino)pyridin-2-yl]thiazol-2-yl}piperidine-4-carboxamide] | < 0.1 | 0.1 to 1 | – | – | –
8 | CC(=O)c1ccnc(Nc2cccc(-c3cnc(N4CCC[C@H]4C(=O)O)s3)n2)c1 [Compound A-564, (S)-1-{5-[6-(4-acetylpyridin-2-ylamino)pyridin-2-yl]thiazol-2-yl}pyrrolidine-2-carboxylic acid dihydrochloride] | – | – | < 0.1 | > 1 | –
9 | Cc1ccnc(Nc2cccc(-c3cnc(CN4C(=O)CNCC4=O)s3)n2)c1 [Compound A-415] | – | – | 0.1 to 1 | 0.1 to 1 | –
10 | Cc1ccnc(Nc2cccc(-c3ccc(C(=O)N4CCC[C@H]4CO)s3)n2)c1 [Compound B-80] | – | – | – | – | IC50 [1, 6]: 0.1 to 1 µM; IC50 [2, 7]: 0.1 to 1 µM
11 | Cc1ccnc(Nc2cccc(-c3cnc(CN4CCCCC4=O)s3)n2)c1 [Compound A-401] | – | – | > 1 | 0.1 to 1 | –
12 | COc1ccnc(Nc2cccc(-c3cnc([C@H](C)N)s3)n2)c1 [Compound A-76] | 0.1 to 1 | 0.1 to 1 | – | – | –
13 | Cc1ccnc(Nc2cccc(-c3cnc([C@H]4CC[C@H](CO)CC4)s3)n2)c1 [Compound A-211, (trans-4-{5-[6-(4-methylpyridin-2-ylamino)pyridin-2-yl]thiazol-2-yl}cyclohexyl)methanol] | < 0.1 | 0.1 to 1 | – | – | –
14 | Cc1ccnc(Nc2cccc(-c3cnc(N4CCN(C=O)CC4)s3)n2)c1 [Compound A-410] | – | – | 0.1 to 1 | < 0.1 | –
15 | Cc1ccnc(Nc2cccc(-c3cnc(N4CCC(CC(=O)O)C4)s3)n2)c1 (stereo not shown) [Compound A-588, (1-{5-[6-(4-methylpyridin-2-ylamino)pyridin-2-yl]thiazol-2-yl}pyrrolidin-3-yl)acetic acid] | – | – | < 0.1 | > 1 | –
16 | Cc1ccnc(Nc2cccc(-c3cnc(N(C)C4CCNCC4)s3)n2)c1 [Compound A-452, N-methyl-N-{5-[6-(4-methylpyridin-2-ylamino)pyridin-2-yl]thiazol-2-yl}-N-piperidin-4-ylamine] | – | – | < 0.1 | > 1 | –
17 | Cc1ccnc(Nc2cccc(-c3cnc(CCNC(=O)CO)s3)n2)c1 [Compound A-257] | 0.1 to 1 | 0.1 to 1 | – | – | –
18 | Cc1ccnc(Nc2cccc(-c3cnc(CN4CCC[C@H]4CO)s3)n2)c1 [Compound A-379] | – | – | 0.1 to 1 | 0.1 to 1 | –
19 | Cc1ccnc(Nc2cccc(-c3cnc(N(CC(=O)N(C)C)Cc4ccc(C(=O)O)cc4)s3)n2)c1 [Compound A-597, 4-[(N-dimethylcarbamoylmethyl-N-{5-[6-(4-methylpyridin-2-ylamino)pyridin-2-yl]thiazol-2-yl}amino)methyl]benzoic acid dihydrochloride] | – | – | < 0.1 | > 1 | –
20 | CC(=O)N1CCC(Cc2ncc(-c3cccc(Nc4cc(C)ccn4)n3)s2)CC1 [Compound A-328] | 0.1 to 1 | 0.1 to 1 | – | – | –
21 | CNC(=O)c1ncc(-c2cccc(Nc3cc(C)ccn3)n2)s1 [Compound A-47, N-methyl-5-[6-(4-methylpyridin-2-ylamino)pyridin-2-yl]thiazole-2-carboxamide] | < 0.1 | 0.1 to 1 | – | – | –
22 | CC(=O)Nc1cc(C)c(-c2cccc(Nc3cc(C)ccn3)n2)s1 [Compound B-8] | – | – | – | – | IC50 [1, 6]: 0.1 to 1 µM; IC50 [2, 7]: > 1 µM

Row | Compound | IC50 [1, 3] [µM] | IC50 [2, 4] [µM] | IC50 [1, 5] [µM] | IC50 ([2]; Tables 1-x, compounds A) [µM] | further results
23 | Cc1ccnc(Nc2cccc(-c3cnc([C@H]4CC[C@H](CN5CCCC(O)C5)CC4)s3)n2)c1 (stereo partly shown) [Compound A-315] | 0.1 to 1 | > 1 | – | – | –
24 | CC(=O)N1C[C@H](OCc2ccccc2)C[C@H]1c1ncc(-c2cccc(Nc3cc(C)ccn3)n2)s1 [Compound A-90] | 0.1 to 1 | > 1 | – | – | –
25 | COC(=O)c1ccc(-c2cccc(Nc3cc(C)ccn3)n2)s1 [Compound B-19] | – | – | – | – | IC50 [1, 6]: 0.1 to 1 µM; IC50 [2, 7]: > 1 µM
26 | Cc1ccnc(Nc2cccc(-c3cnc(CN4C(=O)COCC4=O)s3)n2)c1 [Compound A-387] | – | – | 0.1 to 1 | 0.1 to 1 | –
27 | CC(=O)c1ccc(-c2cccc(Nc3cc(C4=NC(C)(C)CO4)ccn3)n2)s1 [Compound B-87, 1-(5-{6-[4-(4,4-dimethyl-4,5-dihydrooxazol-2-yl)pyridin-2-ylamino]pyridin-2-yl}thiophen-2-yl)ethanone] | – | – | – | – | IC50 [1, 6]: < 0.1 µM; IC50 [2, 7]: 0.1 to 1 µM
28 | CO/N=C(\N)c1ccc(-c2cccc(Nc3cc(C)ccn3)n2)s1 [Compound B-69] | – | – | – | – | IC50 [1, 6]: 0.1 to 1 µM; IC50 [2, 7]: 0.1 to 1 µM
29 | Cc1ccnc(Nc2cccc(-c3cnc(CC4CCC(O)CC4)s3)n2)c1 (stereo not shown) [Compound A-341, 4-{5-[6-(4-methylpyridin-2-ylamino)pyridin-2-yl]thiazol-2-ylmethyl}cyclohexanol] | < 0.1 | 0.1 to 1 | – | – | –
30 | Cc1ccnc(Nc2cccc(-c3cnc(C(=O)NCCC(=O)O)s3)n2)c1 [Compound A-148, 3-({5-[6-(4-methylpyridin-2-ylamino)pyridin-2-yl]thiazole-2-carbonyl}amino)propionic acid] | < 0.1 | > 1 | – | – | –
31 | Cc1ccnc(Nc2cccc(-c3ccc(-c4noc(=O)[nH]4)s3)n2)c1 [Compound B-61] | – | – | – | – | IC50 [1, 6]: 0.1 to 1 µM; IC50 [2, 7]: > 1 µM
32 | CC(O)c1ccnc(Nc2cccc(-c3cnc(N4CCC(C(N)=O)CC4)s3)n2)c1 (stereo not shown) [Compound A-547, 1-(5-{6-[4-(1-hydroxyethyl)pyridin-2-ylamino]pyridin-2-yl}thiazol-2-yl)piperidine-4-carboxamide] | – | – | < 0.1 | > 1 | –
33 | CC(=O)NC(C)c1ccc(-c2cccc(Nc3cc(C)ccn3)n2)s1 (stereo not shown) [Compound B-93] | – | – | – | – | IC50 [1, 6]: 0.1 to 1 µM; IC50 [2, 7]: 0.1 to 1 µM
34 | Cc1ccnc(Nc2cccc(-c3cnc(N4CCC[C@H]4C(N)=O)s3)n2)c1 [Compound A-528, (S)-1-{5-[6-(4-methylpyridin-2-ylamino)pyridin-2-yl]thiazol-2-yl}pyrrolidine-2-carboxamide] | – | – | < 0.1 | < 0.1 | –
35 | Cc1ccnc(Nc2cccc(-c3cnc(CCc4cccc(CO)c4)s3)n2)c1 [Compound A-277, [3-(2-{5-[6-(4-methylpyridin-2-ylamino)pyridin-2-yl]thiazol-2-yl}ethyl)phenyl]methanol] | < 0.1 | 0.1 to 1 | – | – | –
36 | Cc1ccnc(Nc2cccc(-c3cnc(N4CCC(NC(=O)CO)CC4)s3)n2)c1 [Compound A-482, 2-hydroxy-N-(1-{5-[6-(4-methylpyridin-2-ylamino)pyridin-2-yl]thiazol-2-yl}piperidin-4-yl)acetamide] | – | – | < 0.1 | 0.1 to 1 | –
37 | Cc1ccnc(Nc2cccc(-c3ccc([N+](=O)[O-])s3)n2)c1 [Compound B-28] | – | – | – | – | IC50 [1, 6]: 0.1 to 1 µM; IC50 [2, 7]: > 1 µM
38 | Cc1ccnc(Nc2cccc(-c3cnc(N4CCCC(C(=O)O)C4)s3)n2)c1 (stereo not shown) [Compound A-474, 1-{5-[6-(4-methylpyridin-2-ylamino)pyridin-2-yl]thiazol-2-yl}piperidine-3-carboxylic acid] | – | – | < 0.1 | > 1 | –
39 | COC(=O)[C@H]1CC[C@H](c2ncc(-c3cccc(Nc4cc(Cl)ccn4)n3)s2)CC1 [Compound A-203] | 0.1 to 1 | 0.1 to 1 | – | – | –
40 | CC(=O)N[C@@H](CCC(=O)OCc1ccccc1)c1ncc(-c2cccc(Nc3cc(C)ccn3)n2)s1 [Compound A-98] | 0.1 to 1 | > 1 | – | – | –
41 | Cc1ccnc(Nc2cccc(-c3cnc(N4CCN(C(=O)CO)CC4)s3)n2)c1 [Compound A-439, 2-hydroxy-1-(4-{5-[6-(4-methylpyridin-2-ylamino)pyridin-2-yl]thiazol-2-yl}piperazin-1-yl)ethanone] | – | – | < 0.1 | < 0.1 | –
42 | Cc1ccnc(Nc2cccc(-c3cnc(CNC(=O)CO)s3)n2)c1 [Compound A-201] | 0.1 to 1 | 0.1 to 1 | – | – | –
43 | CC(O)c1ccnc(Nc2cccc(-c3cnc(N4CC[C@@H](O)C4)s3)n2)c1 (stereo partly drawn) [Compound A-554, (R)-1-(5-{6-[4-(1-hydroxyethyl)pyridin-2-ylamino]pyridin-2-yl}thiazol-2-yl)pyrrolidin-3-ol] | – | – | < 0.1 | 0.1 to 1 | –
44 | Cc1ccnc(Nc2cccc(-c3cnc(C(=O)NC(C)(C)C(=O)O)s3)n2)c1 [Compound A-154] | 0.1 to 1 | > 1 | – | – | –
